Measurements reported in US9302999B2, “Substituted triazoles as herbicides” (E. I. DU PONT DE NEMOURS AND COMPANY, priority 2012, dated 2016).

Columns and labels:
Format in all cases: in vivo
wild oat (Avena fatua) = assay: Test C pre-/postemergence: wild oat; conditions: Postemergence
Summary of the method: (§1)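 Visual injury scored 0–100 (100 = complete control) against untreated controls after 13–15 greenhouse days. Surfactant-containing solvent formulations applied either to soil after sowing (loam/sand) or over 1- to 4-leaf plants, 2–18 cm tall.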

[1] = system: large crabgrass (Digitaria sanguinalis); assay: Test C pre-/postemergence: large crabgrass
Summary of the method: as §1

[2] = system: blackgrass (Alopecurus myosuroides); assay: Test C pre-/postemergence: blackgrass
Summary of the method: as §1

[3] = system: galium (catchweed bedstraw, Galium aparine); assay: Test C pre-/postemergence: galium
Summary of the method: as §1

[4] = system: velvetleaf (Abutilon theophrasti); assay: Test A pre-/postemergence: velvetleaf
Summary of the method: (§2)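 Visual 0–100 injury ratings (0 no effect, 100 complete control) taken about ten days after treatment, relative to untreated controls. Preemergence treatment was a directed soil spray; postemergence plants were 2–10 cm tall at one- to two-leaf stage. Soil: loam/sand blend.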

[5] = system: morningglory (Ipomoea spp.); assay: Test A pre-/postemergence: morningglory
Summary of the method: as §2

[6] = system: ragweed (common ragweed, Ambrosia elation); assay: Test C pre-/postemergence: ragweed
Summary of the method: as §1

[7] = system: velvetleaf (Abutilon theophrasti); assay: Test C pre-/postemergence: velvetleaf
Summary of the method: as §1

kochia (Kochia scoparia) = assay: Test C pre-/postemergence: kochia; conditions: Postemergence
Summary of the method: as §1

[8] = system: pigweed (Amaranthus retroflexus); assay: Test C pre-/postemergence: pigweed
Summary of the method: as §1

corn (Zea mays) = assay: Test C pre-/postemergence: corn
Summary of the method: as §1

[9] = system: johnsongrass (Sorghum halepense); assay: Test C pre-/postemergence: johnsongrass
Summary of the method: as §1

[10] = 31 g ai/ha, scale 0 to 100 (0 no effect, 100 complete control)
[11] = 62 g ai/ha, scale 0 to 100 (0 no effect, 100 complete control)
[12] = Postemergence, 31 g ai/ha, scale 0 to 100 (0 no effect, 100 complete control)
[13] = Postemergence, 62 g ai/ha, scale 0 to 100 (0 no effect, 100 complete control)
[14] = Postemergence, 125 g ai/ha, scale 0 to 100, 0 no effect, 100 complete control
[15] = Postemergence, 250 g ai/ha, scale 0 to 100
[16] = Preemergence, 31 g ai/ha, scale 0 (no effect) to 100 (complete control)
[17] = Preemergence, 62 g ai/ha, scale of 0 to 100, 0 is no effect, 100 is complete control
[18] = Preemergence, 125 g ai/ha, scale 0 to 100, 0 no effect, 100 complete control
[19] = Preemergence, 250 g ai/ha, scale 0 to 100, 0 no effect, 100 complete control
[20] = Postemergence, 125 g ai/ha, 0 to 100 scale, 0 is no effect, 100 is complete control
[21] = Postemergence, 500 g ai/ha, 0 to 100 scale, 0 is no effect, 100 is complete control
[22] = Preemergence, 125 g ai/ha, 0 to 100 scale where 0 is no effect and 100 is complete control
[23] = Preemergence, 500 g ai/ha, 0 to 100 scale (0 no effect, 100 complete control)
[24] = 125 g ai/ha, scale 0 to 100, 0 no effect, 100 complete control
[25] = 250 g ai/ha, scale 0 to 100 (0 no effect, 100 complete control)
[26] = Postemergence, 250 g ai/ha, scale 0 to 100 (0 no effect, 100 complete control)

CCc1nn(-c2ccc(F)cc2)nc1Oc1ccnc(C(F)(F)F)c1 [Compound 166]
40: Plant response rating, Crabgrass, Large [1, 15] | Plant response rating, Blackgrass [2, 14]
98: Plant response rating, Crabgrass, Large [1, 17] | Plant response rating, Pigweed [8, 15]
55: Plant response rating, Ragweed [6, 19]
100: Plant response rating, Crabgrass, Large [1, 18] | Plant response rating, Crabgrass, Large [1, 19] | Plant response rating, Galium [3, 19] | Velvetleaf plant response rating [4, 21] | Morningglory plant response rating [5, 21] | Plant response rating, Pigweed [8, 16] | Plant response rating, Pigweed [8, 17] | Plant response rating, Pigweed [8, 18] | Plant response rating, Pigweed [8, 19] | Plant response rating, Johnsongrass [9, 19]
95: Plant response rating, Blackgrass [2, 19] | Plant response rating, Pigweed [8, 14]
70: Plant response rating, Velvetleaf [4, 23]
60: Plant response rating, Blackgrass [2, 15] | Plant response rating, Galium [3, 14] | Plant response rating, Velvetleaf [7, 19]
90: Plant response rating, Blackgrass [2, 17] | Plant response rating, Blackgrass [2, 18] | Plant response rating, Galium [3, 18] | Plant response rating, Morningglory [5, 20] | Plant response rating, Kochia (kochia (Kochia scoparia); [10]) | Plant response rating, Kochia (kochia (Kochia scoparia); [11]) | Plant response rating, Kochia (kochia (Kochia scoparia); [24]) | Plant response rating, Kochia (kochia (Kochia scoparia); 250 g ai/ha, scale 0 to 100)
20: Plant response rating, Oat, Wild (wild oat (Avena fatua); [11]) | Plant response rating, Crabgrass, Large [1, 14] | Plant response rating, Blackgrass [2, 13] | Plant response rating, Ragweed [6, 16] | Plant response rating, Ragweed [6, 17] | Plant response rating, Velvetleaf [7, 13] | Plant response rating, Velvetleaf [7, 14] | Plant response rating, Corn (corn (Zea mays); [19]) | Plant response rating, Johnsongrass [9, 14] | Plant response rating, Johnsongrass [9, 15]
10: Plant response rating, Blackgrass [2, 12] | Plant response rating, Galium [3, 16] | Plant response rating, Galium [3, 17] | Plant response rating, Velvetleaf [7, 12] | Plant response rating, Johnsongrass [9, 12] | Plant response rating, Johnsongrass [9, 16]
0: Plant response rating, Velvetleaf [7, 16] | Plant response rating, Velvetleaf [7, 17] | Plant response rating, Corn (corn (Zea mays); [16])
75: Plant response rating, Ragweed [6, 15] | Plant response rating, Johnsongrass [9, 18]
85: Plant response rating, Crabgrass, Large [1, 16] | Plant response rating, Pigweed [8, 13]
5: Plant response rating, Corn (corn (Zea mays); [18])
80: Plant response rating, Galium [3, 15] | Plant response rating, Velvetleaf [4, 20]
35: Plant response rating, Pigweed [8, 12]
25: Plant response rating, Ragweed [6, 14] | Plant response rating, Ragweed [6, 18]
30: Plant response rating, Oat, Wild (wild oat (Avena fatua); 250 g ai/ha, scale 0 to 100) | Plant response rating, Velvetleaf [4, 22] | Plant response rating, Velvetleaf [7, 15] | Plant response rating, Johnsongrass [9, 17]
50: Plant response rating, Galium [3, 12] | Plant response rating, Galium [3, 13]
15: Plant response rating, Oat, Wild (wild oat (Avena fatua); [10]) | Plant response rating, Crabgrass, Large [1, 12] | Plant response rating, Crabgrass, Large [1, 13] | Plant response rating, Blackgrass [2, 16] | Plant response rating, Ragweed [6, 12] | Plant response rating, Ragweed [6, 13] | Plant response rating, Velvetleaf [7, 18] | Plant response rating, Corn (corn (Zea mays); [12]) | Plant response rating, Corn (corn (Zea mays); [13]) | Plant response rating, Corn (corn (Zea mays); [14]) | Plant response rating, Corn (corn (Zea mays); [15]) | Plant response rating, Johnsongrass [9, 13]

CCCc1nn(-c2ccc(C(F)(F)F)c(F)c2)nc1Oc1ccnc(C(F)(F)F)c1 [Compound 185]
15: Plant response rating, Corn (corn (Zea mays); [12])
30: Plant response rating, Oat, Wild (wild oat (Avena fatua); [11]) | Plant response rating, Johnsongrass [9, 13]
100: Plant response rating, Crabgrass, Large [1, 16] | Plant response rating, Crabgrass, Large [1, 17] | Plant response rating, Crabgrass, Large [1, 18] | Plant response rating, Crabgrass, Large [1, 19] | Plant response rating, Galium [3, 17] | Plant response rating, Galium [3, 18] | Plant response rating, Galium [3, 19] | Plant response rating, Velvetleaf [4, 20] | Velvetleaf plant response rating [4, 21] | Plant response rating, Velvetleaf [4, 23] | Plant response rating, Morningglory [5, 20] | Morningglory plant response rating [5, 21] | Plant response rating, Morningglory [5, 23] | Plant response rating, Velvetleaf [7, 18] | Plant response rating, Velvetleaf [7, 19] | Plant response rating, Pigweed [8, 14] | Plant response rating, Pigweed [8, 26] | Plant response rating, Pigweed [8, 16] | Plant response rating, Pigweed [8, 17] | Plant response rating, Pigweed [8, 18] | Plant response rating, Pigweed [8, 19] | Plant response rating, Johnsongrass [9, 19]
40: Plant response rating, Crabgrass, Large [1, 13] | Plant response rating, Blackgrass [2, 13] | Plant response rating, Ragweed [6, 16]
50: Plant response rating, Blackgrass [2, 14] | Plant response rating, Blackgrass [2, 15]
70: Plant response rating, Galium [3, 12] | Plant response rating, Johnsongrass [9, 17]
60: Plant response rating, Oat, Wild (wild oat (Avena fatua); [25]) | Plant response rating, Crabgrass, Large [1, 14] | Plant response rating, Morningglory [5, 22] | Plant response rating, Velvetleaf [7, 16]
65: Plant response rating, Johnsongrass [9, 14]
35: Plant response rating, Corn (corn (Zea mays); [18]) | Plant response rating, Corn (corn (Zea mays); [19])
75: Plant response rating, Ragweed [6, 12] | Plant response rating, Johnsongrass [9, 26]
20: Plant response rating, Blackgrass [2, 12] | Plant response rating, Corn (corn (Zea mays); [13])
85: Plant response rating, Velvetleaf [7, 14]
90: Plant response rating, Blackgrass [2, 16] | Plant response rating, Galium [3, 14] | Plant response rating, Galium [3, 26] | Plant response rating, Velvetleaf [4, 22] | Plant response rating, Ragweed [6, 13] | Plant response rating, Velvetleaf [7, 26] | Plant response rating, Kochia (kochia (Kochia scoparia); [10]) | Plant response rating, Kochia (kochia (Kochia scoparia); [11]) | Plant response rating, Kochia (kochia (Kochia scoparia); [24]) | Plant response rating, Kochia (kochia (Kochia scoparia); [25])
5: Plant response rating, Corn (corn (Zea mays); [16]) | Plant response rating, Corn (corn (Zea mays); [17])
80: Plant response rating, Crabgrass, Large [1, 15] | Plant response rating, Galium [3, 13] | Plant response rating, Galium [3, 16] | Plant response rating, Ragweed [6, 17] | Plant response rating, Velvetleaf [7, 13] | Plant response rating, Velvetleaf [7, 17] | Plant response rating, Johnsongrass [9, 18]
98: Plant response rating, Blackgrass [2, 19] | Plant response rating, Pigweed [8, 12] | Plant response rating, Pigweed [8, 13]
55: Plant response rating, Oat, Wild (wild oat (Avena fatua); [24]) | Plant response rating, Velvetleaf [7, 12]
10: Plant response rating, Johnsongrass [9, 12]
25: Plant response rating, Oat, Wild (wild oat (Avena fatua); [10]) | Plant response rating, Crabgrass, Large [1, 12] | Plant response rating, Corn (corn (Zea mays); [14]) | Plant response rating, Corn (corn (Zea mays); [15]) | Plant response rating, Johnsongrass [9, 16]
95: Plant response rating, Blackgrass [2, 17] | Plant response rating, Blackgrass [2, 18] | Plant response rating, Ragweed [6, 14] | Plant response rating, Ragweed [6, 26] | Plant response rating, Ragweed [6, 18] | Plant response rating, Ragweed [6, 19]
